Results on one compound are retold here after PMC9453066, “Targeted control of pneumolysin production by a mobile genetic element in Streptococcus pneumoniae” (Microbial Genomics, 2022).

This test relates to ZomB. The note with it: saturating ssDNA (poly(dT)); 1 mM MgCl2, 50 mM NaCl, 2 mM DTT, 20 mM Tris-Cl pH 8.0, 25 °C; 50 nM ZomB.

In the case of `Nc1ncnc2c1ncn2[C@@H]1O[C@H](COP(=O)(O)OP(=O)(O)OP(=O)(O)O)[C@@H](O)[C@H]1O` [ATP], the Km – broadly, the substrate concentration at which the rate is half of its maximum – turned out to be 90 µM.
